Source: US20130209551A1, “PENTAPEPTIDE DERIVATIVES FOR PROMOTING HAIR GROWTH” (priority 2010, published 2013)
*: point of attachment. Biotin = O=C1N[C@H]2[C@H](CS[C@H]2CCCCC(=O)*)N1

Test system: hair bulb keratinocytes
Assay: Detection of the hair bulb keratinocyte proliferation (test of Biol. Pharm. Bull., 28(3), 485-489, (2005))
Assay type: cell-based
Settings: relative to unsubstituted pentapeptide Gly-Pro-Ile-Gly-Ser
Description: In the test as described in Biol. Pharm.

## 5-[(3aS,4S,6aR)-2-oxo-hexahydro-1H-thieno[3,4-d]imidazol-4-yl]pentanoyl-Gly-Pro-Ile-Gly-Ser-OH (Biotin-GPIGS-OH; SMILES CC[C@H](C)[C@H](NC(=O)[C@@H]1CCCN1C(=O)CNC(=O)CCCC[C@@H]1SC[C@@H]2NC(=O)N[C@@H]21)C(=O)NCC(=O)N[C@@H](CO)C(=O)O) [No. 9]
  keratinocyte growth test result, value superior in comparison with the corresponding value for Gly-Pro-Ile-Gly-Ser: 53%
